Results as given in US6696436B1, “B-homoestra-1,3,5(10)-trienes as modulators of tubulin polymerization” (The United States of America as represented by the …, priority 1999, dated 2004).
“Also recorded” adds a separate entry of the source.

What was measured:
tubulin [1] = system: T1, tubulin; assay: Critical concentration of tubulin for assembly, turbidimetric (FIG. 6); format: biochemical; conditions: for Critical concentration of tubulin, MAP- and GTP-dependent assembly / Critical concentration of tubulin, GTP-dependent, MAP-independent assembly: 30° C., 10 μM drug; for Critical concentration of tubulin, MAP- and GTP-dependent assembly: MAPs:tubulin 1:3 by weight; for Critical concentration of tubulin, GTP-dependent, MAP-independent assembly: no MAPs
T1 construct: Activity in room temperature assay; other: no polymerization in the absence of drug; other: GTP-only system, critical concentrations
Experimental: FIG. 6 presents critical concentrations, obtained at 30° C., of tubulin with paclitaxel and compound 13. A: MAPs -and GTP-dependent assembly without drug and in the presence of 10 μM paclitaxel or 10 μM 13. B: GTP-dependent, MAP-independent assembly with 10 μM paclitaxel or 10 μM 13.
Measurement of the critical concentration with and without MAPs with paclitaxel, and again with 13, was therefore carried out to provide some idea of the comparative activity of these agents. The data are presented in FIG. 6, which yield critical concentrations, obtained at 30° C., of 1.4, 0.06, and 0.50 mg/ml for MAP-and GTP-dependent assembly without drug and in the presence of 10 μM paclitaxel or 10 μM 13, respectively, and 0.20 and 1.4 mg/ml for GTP-dependent, MAP-independent assembly with 10 μM paclitaxel or 10 μM 13. […] (A constant weight ratio of MAPs to tubulin of 1:3 was used, because the suboptimal concentration of MAPs caused greater differences in the critical concentrations obtained.) Reaction mixtures (0.25 ml) contained 0.1 M Mes (pH 6.9), 100 μM GTP, 4% dimethyl sulfoxide, the indicated tubulin concentration (with heat-treated MAPs in 1:3 weight ratio to the tubulin, panel A only), and either 10 μM paclitaxel (▴), 10 μM compound 13 (◯), or no drug (▾). Cuvette contents were equilibrated at 0°, drugs were added, temperature was jumped to 30° (about one min), and the turbidity changes after a 20 min incubation measured.

tubulin [2] = system: T1, tubulin; assay: Enhancement of glutamate- or MAP-induced tubulin assembly, turbidimetric curves (FIGS. 4 and 5); format: biochemical; conditions: for Effect on MAP-induced tubulin assembly: 0.75 mg/ml MAPs, 1.0 mg/ml tubulin, 25° C.
Experimental: In those cases where acceleration of tubulin polymerization is observed, an IC50 value for inhibition of polymerization is of course not derivable. Results for such compounds may be presented in the form of turbidimetric curves, e.g. as presented in FIGS. 4 and 5 for representative compounds 13 and 18.
FIG. 4: Each reaction mixture contained 0.8 M glutamate (pH 6.6), 0.4 mM GTP, 12 μM (1.2 mg/ml) tubulin, 4% (v/v) dimethyl sulfoxide, and compound 13 or 18 as indicated. Baselines were established at 0°, and at time zero the temperature controller was set at 26°. At the time indicated by the dashed line, the temperature controller was set at 0°. A. Curve 1, no drug; curve 2, 2 μM compound 13; curve 3, 5 μM 7; curve 4, 10 μM 7; curve 5, 40 μM 7; curve 6, 40 μM 14. B. Curve 1, no drug; curve 2, 2 μM compound 18; curve 3, 5 μM 18; curve 4, 10 μM 18; curve 5, 40 μM 18.
FIG. 5: Each reaction mixture contained 0.1 M Mes (pH 6.9 with NaOH in 0.5 M stock solution), 0.1 mM GTP, 10 μM (1.0 mg/ml) tubulin, 0.75 mg/ml heat-treated MAPs, 4% dimethyl sulfoxide, and drug as indicated. […] There was no change in turbidity in any reaction mixture. At this point the temperature controller was set at 10°, and subsequent temperature changes, as indicated, were made at the times indicated by the vertical dashed lines. Curve 1, no drug; curve 2, 10 μM paclitaxel; curve 3, 10 μM compound 13; curve 4, 20 μM 7; curve 5, 40 μM 7; curve 6, 10 μM compound 18.

tubulin [3] = system: T1, tubulin; assay: Polymer morphology by electron microscopy; format: biochemical; conditions: for Cold stable microtubules after return to 0° C. for 15 min: 40 μM 13 or 10 μM paclitaxel
Description: It was possible that compounds 13 and 18 were not actually acting like paclitaxel in enhancing microtubule assembly and in stabilizing the microtubules formed in the course of the turbidity studies shown in FIG. 4, but that these agents were causing formation of polymers of aberrant morphology and temperature stability different from microtubules, such as occurs with vinca alkaloids. Polymer morphology was examined by electron microscopy. […] Even more important, when the reaction mixtures were returned to 0° C. for 15 min, no microtubules were visualized on grids prepared from the reaction mixture without drug.

tubulin [4] = system: T1, tubulin; assay: Enhancement of glutamate- or MAP-induced tubulin assembly, turbidimetric curves (FIGS. 4 and 5); format: biochemical; conditions: for Assembly reaction when either MAPs or GTP was omitted: 10 μM tubulin, 40 μM compound 13 or 10 μM paclitaxel
tubulin [5] = system: T2, tubulin; assay: Tubulin polymerization inhibition in vitro (turbidity at 350 nm); format: biochemical
T2 construct: other: 1.0 M glutamate, 10 μM tubulin; Effect on tubulin polymerization / microtubule assembly
Experimental: Microtubule assembly is followed in a temperature controlled recording spectrophotometer. For details and a discussion, see R. D'Amato et al., Proc Natl Acad Sci USA, 91:3964-3968 (1994).
A typical reaction mixture, which will have a final reaction volume of […], contains 1.0 M monosodium glutamate (pH 6.6), 1.0 mg/ml (10 μM) tubulin, 1.0 MM MgCl2, 4% (v/v) dimethylsulfoxide, and a compound to be tested at the desired concentration (typically 0.1 to 100 μM). The reaction mixtures are incubated for 15 min. at 37° C. and then chilled on ice. After addition of 10 μl 12.5 mM GTP (and, optionally, 0.33 mg/ml microtubule-associated proteins, or MAPs) to initiate polymerization, each reaction mixture is transferred to a cuvette at 0° C., and a baseline established. At time zero, the temperature controller of the spectrophotometer is set to a target temperature, typically between 25 and 37° C. Microtubule assembly is monitored by observing an increase in turbidity at 350 nm as the temperature of the reaction mixture rises to the set target temperature.
The results are presented in Table 1 as IC50 values (μM) for inhibition of tubulin polymerization. Alternatively, inhibition of microtubule assembly can be detected by transmission electron microscopy, as described in U.S. Pat. No. 5,504,074 which is hereby incorporated by reference in its entirety.

tubulin polymer [6] = assay: Inhibition of [3H]paclitaxel binding to tubulin polymer
tubulin [7] = system: T1, tubulin; assay: Room temperature tubulin assembly assay (favorable reaction conditions, glutamate-dependent); format: biochemical; conditions: no polymerization in the absence of drug
Experimental: Previous observations with paclitaxel analogs indicate that differences between compounds are magnified in restrictive reaction conditions and minimized in favorable reaction conditions. […] However, under favorable reaction conditions (room temperature) the quantitative difference between paclitaxel and sarcodictyin A was only 2.5-fold. […] The critical concentration with 10 μM sarcodictyin A under the reaction conditions shown in FIG. 6B is 1.0 mg/ml in the GTP-only system.

tubulin [8] = system: T1, tubulin; assay: Tubulin polymerization inhibition in vitro (turbidity at 350 nm); format: biochemical; parameters: key: *: Accelerates tubulin polymerization; conditions: no IC50 derivable
tubulin polymer [9] = conditions: cited from earlier work
tubulin [10] = system: T1, tubulin; conditions: favorable reaction conditions (room temperature); cited from earlier work
[11] = system: chick embryo chorioallantoic membrane; assay: Chick embryo chorioallantoic membrane (CAM) assay; format: in vivo; conditions: 100 mg disk, after 48 hours
Experimental: Anti-angiogenic activity is evaluated in vivo by testing the ability of a compound to inhibit the proliferation of new blood vessel cells (angiogenesis). A suitable assay is the chick embryo chorioallantoic membrane (CAM) assay described by Crum et al., Science 230:1375 (1985). See also, U.S. Pat. No. 5,001,116, which is hereby incorporated by reference in its entirety. Briefly, fertilized chick embryos are removed from their shell on day 3 or 4, and a methylcellulose disc containing the drug is implanted on the chorioallantoic membrane. The embryos are examined 48 hours later and, if a clear avascular zone appears around the disc, the diameter of that zone is measured.

[12] = GTP-only system, critical concentrations

Q: With `CC(=O)O[C@H]1C(=O)[C@@]2(C)[C@H]([C@H](OC(=O)c3ccccc3)[C@]3(O)C[C@H](OC(=O)[C@H](O)[C@@H](NC(=O)c4ccccc4)c4ccccc4)C(C)=C1C3(C)C)[C@]1(OC(C)=O)CO[C@@H]1C[C@@H]2O` [paclitaxel, Paclitaxel, reference compound] as the molecule, how does the “Critical concentration of tubulin, MAP- and GTP-dependent assembly” value (tubulin [1]) read?
A: Its value is 0.06 mg/mL.

Q: What about the “Critical concentration of tubulin, GTP-dependent, MAP-independent assembly” value (tubulin [1]) of the same molecule?
A: Its value is 0.20 mg/mL.

Q: And the “Affinity for tubulin polymers relative to compound 13” value (tubulin [1]; from critical concentrations)?
A: The value was 7-8 fold.

Q: And the “Effect on MAP-induced tubulin assembly” value (tubulin [2])?
A: Its value is “much more extensive than that with compound 13”.

Q: What about the “Cold stable microtubules after return to 0° C. for 15 min” value (tubulin [3]) of the same molecule?
A: Its value is “abundant cold stable microtubules were observed”.

Q: What about the “Assembly reaction when either MAPs or GTP was omitted” value (tubulin [4]) of the same molecule?
A: Its value is “a reaction was observed in both cases”.

Q: For `CCOc1cc2c(cc1OC(C)=O)C(=O)CC[C@@H]1[C@@H]2CC[C@]2(C)[C@@H](OC(C)=O)CC[C@@H]12` [Compound 13, B-Homo-3,17β-diacetoxy-2-ethoxyestra-1,3,5(10)-triene-6-one], which “Effect on tubulin polymerization / microtubule assembly” value (tubulin [5]) is on record?
A: Its value is “stimulate microtubule assembly”.

Q: What about the “Assembly of microtubules without MAPs” value (tubulin [1]; 10 μM 13, 40 μM tubulin) of the same molecule?
A: Its value is “assembly of microtubules was observed without MAPs”.

Q: And the “Critical concentration of tubulin, MAP- and GTP-dependent assembly” value (tubulin [1])?
A: The value was 0.50 mg/mL.

Q: And the “Critical concentration of tubulin, GTP-dependent, MAP-independent assembly” value (tubulin [1])?
A: Its value is 1.4 mg/mL.

Q: And the “Inhibition of [3H]paclitaxel binding to tubulin polymer” value (tubulin polymer [6])?
A: The value was “only minimally inhibits”.

Q: And the “Maximal inhibition of [3H]paclitaxel binding to tubulin polymer” value (tubulin polymer [6])?
A: Its value is “about 20%”.

Q: And the “Effect on glutamate- and MAP-induced tubulin assembly” value (tubulin [2])?
A: Its value is “paclitaxel-like properties”.

Q: What about the “Effect on MAP-induced tubulin assembly” value (tubulin [2]) of the same molecule?
A: Its value is “enhanced tubulin assembly; also recorded: significantly less than that of paclitaxel”.

Q: What about the “Microtubules formed, seen by electron microscopy” value (tubulin [3]) of the same molecule?
A: Its value is “abundant microtubules were formed that were indistinguishable from those formed in the absence of drug”.

Q: And the “Cold stable microtubules after return to 0° C. for 15 min” value (tubulin [3])?
A: The value was “abundant cold stable microtubules were observed”.

Q: What about the “Activity in room temperature assay” value (tubulin [7]) of the same molecule?
A: Its value is “inactive”.

Q: And the “Tubulin polymerization inhibition, symbol instead of IC50” value (tubulin [8])?
A: Its value is “*”.

Q: And the “Tubulin assembly in the absence of GTP” value (tubulin [4])?
A: The value was “has not been observed; also recorded: not without GTP”.

Q: And the “Assembly reaction when either MAPs or GTP was omitted” value (tubulin [4])?
A: The value was “no reaction occurred”.

Q: For `COC(=O)/C1=C/[C@@H]2[C@@H](C(C)C)CC=C(C)[C@@H]2C[C@H](OC(=O)/C=C/c2cn(C)cn2)[C@]2(C)C=C[C@@]1(O)O2` [sarcodictyin A], which “Critical concentration of tubulin, GTP-dependent, MAP-independent assembly” value (tubulin [1]) is on record?
A: Its value is 1.0 mg/mL.

Q: What about the “Activity relative to compound 13 (% more active)” value (tubulin [1]; [12]) of the same molecule?
A: Its value is 40%.

Q: And the “Activity relative to paclitaxel (fold less active)” value (tubulin [1]; [12])?
A: The value was “about 5 fold”.

Q: What about the “Inhibition of paclitaxel binding to tubulin polymer” value (tubulin polymer [9]) of the same molecule?
A: The value was “only weakly inhibits”.

Q: And the “Quantitative difference between paclitaxel and sarcodictyin A” value (tubulin [10])?
A: The value was 2.5 fold.

Q: For `COc1cc2c(cc1O)CC[C@@H]1[C@@H]2CC[C@]2(C)[C@@H](O)CC[C@@H]12` [2-methoxyestradiol], which “Inhibition of cell mitosis and growth of new blood vessels” value [11] is on record?
A: The value was “inhibit cell mitosis and the growth of new blood vessels”.

Q: With `CCOc1cc2c(cc1O)C(=O)CC[C@@H]1[C@@H]2CC[C@]2(C)[C@@H](OC(C)=O)CC[C@@H]12` [Compound 18, B-Homo-17β-acetoxy-2-ethoxy-3-hydroxyestra-1,3,5(10)-trien-6-one] as the molecule, how does the “Effect on tubulin polymerization / microtubule assembly” value (tubulin [5]) read?
A: Its value is “stimulate microtubule assembly”.

Q: And the “Effect on glutamate- and MAP-induced tubulin assembly” value (tubulin [2])?
A: Its value is “activity was largely retained”.

Q: What about the “Effect on MAP-induced tubulin assembly” value (tubulin [2]) of the same molecule?
A: Its value is “enhanced tubulin assembly; also recorded: less stimulatory than 13; also recorded: significantly less than that of paclitaxel”.

Q: What about the “Tubulin polymerization inhibition, symbol instead of IC50” value (tubulin [8]) of the same molecule?
A: The value was “*”.

Q: And the “Tubulin assembly in the absence of GTP” value (tubulin [4])?
A: The value was “has not been observed”.
